Results on 16 compounds are retold here after US9062041B2 (Bayer Intellectual Property GmbH, priority 2011, dated 2015).

Each structure is given as a SMILES string.

What all share (type): cell-based
The target in test [1] is EP2 subtype of the human PGE2 receptor (Homo sapiens, UniProt P43116). Put plainly: cAMP antagonism test on the human EP2 receptor (HTRF cAMP detection). As to conditions: hEP2 receptor, read-out: Antagonism hEP2 IC50. In a few lines:
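Cells expressing human EP2 preincubated 20 min at RT with compound (0.8 nM–16.5 μM), then stimulated 60 min with PGE2 (3× solution 1.5 nM) in PBS-IBMX. After 20 min lysis, cAMP measured by competitive HTRF with cAMP-d2 and Eu cryptate anti-cAMP antibody (665/620 nm ratio).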
(TR-FRET usually uses a lanthanide donor and a delayed reading to cut background.)

For test [2], the target named is EP4 subtype of the human PGE2 receptor (Homo sapiens, UniProt P35408). Put plainly: cAMP antagonism test on the human EP4 receptor (HTRF cAMP detection). As to conditions: selectivity towards hEP4, IC50 measured by cAMP antagonism test. In a few lines: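 Cells expressing human EP4 preincubated 20 min at RT with compound (0.8 nM–16.5 μM), then stimulated with PGE2 (0.3 nM in 3× solution, with IBMX) 60 min at RT. After lysis, cAMP measured by HTRF competition (665/620 nm ratio); antagonism seen as rise in FRET signal.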

Test [3] has as its target T1, human PGD receptor (Homo sapiens, UniProt Q13258).
T1 sequence (Q13258 1-359): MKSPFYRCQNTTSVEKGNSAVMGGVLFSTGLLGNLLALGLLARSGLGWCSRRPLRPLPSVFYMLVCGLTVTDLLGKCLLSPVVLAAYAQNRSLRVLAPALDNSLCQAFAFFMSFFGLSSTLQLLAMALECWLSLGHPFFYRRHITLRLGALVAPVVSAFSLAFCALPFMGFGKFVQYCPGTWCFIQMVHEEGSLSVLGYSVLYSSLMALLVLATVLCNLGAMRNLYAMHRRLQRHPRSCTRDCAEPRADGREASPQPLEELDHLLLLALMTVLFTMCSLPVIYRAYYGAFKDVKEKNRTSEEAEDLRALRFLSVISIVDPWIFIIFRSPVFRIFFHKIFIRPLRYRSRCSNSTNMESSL
Put plainly: cAMP antagonism test on the human prostaglandin D receptor (HTRF cAMP detection). As to conditions: selectivity towards hDP, IC50 measured by cAMP antagonism test. The method, boiled down: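 Cells pre-mixed with cAMP-d2 were preincubated with compound (0.8 nM–16.5 μM) for 20 min at RT, then stimulated with 3× PGD2 solution (6 nM, in PBS-IBMX) for 30 min at RT. After lysis (20 min), HTRF read at 665/620 nm; antagonism seen as rise in FRET ratio.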

EP4 subtype of the human PGE2 receptor, sequence (P35408 whole entry): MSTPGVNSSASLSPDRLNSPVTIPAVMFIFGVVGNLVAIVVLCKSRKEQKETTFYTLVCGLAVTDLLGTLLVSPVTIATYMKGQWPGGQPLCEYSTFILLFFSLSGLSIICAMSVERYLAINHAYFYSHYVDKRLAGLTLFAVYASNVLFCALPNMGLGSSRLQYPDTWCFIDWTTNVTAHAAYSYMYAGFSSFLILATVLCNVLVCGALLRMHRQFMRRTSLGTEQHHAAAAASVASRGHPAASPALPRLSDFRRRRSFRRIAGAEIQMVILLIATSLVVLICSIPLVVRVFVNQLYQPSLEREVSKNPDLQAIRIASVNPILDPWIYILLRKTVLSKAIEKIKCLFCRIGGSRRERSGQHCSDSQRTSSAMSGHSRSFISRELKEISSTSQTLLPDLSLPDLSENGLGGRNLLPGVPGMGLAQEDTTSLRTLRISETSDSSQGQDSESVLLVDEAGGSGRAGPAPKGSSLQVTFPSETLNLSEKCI
EP2 subtype of the human PGE2 receptor, sequence (P43116 whole entry): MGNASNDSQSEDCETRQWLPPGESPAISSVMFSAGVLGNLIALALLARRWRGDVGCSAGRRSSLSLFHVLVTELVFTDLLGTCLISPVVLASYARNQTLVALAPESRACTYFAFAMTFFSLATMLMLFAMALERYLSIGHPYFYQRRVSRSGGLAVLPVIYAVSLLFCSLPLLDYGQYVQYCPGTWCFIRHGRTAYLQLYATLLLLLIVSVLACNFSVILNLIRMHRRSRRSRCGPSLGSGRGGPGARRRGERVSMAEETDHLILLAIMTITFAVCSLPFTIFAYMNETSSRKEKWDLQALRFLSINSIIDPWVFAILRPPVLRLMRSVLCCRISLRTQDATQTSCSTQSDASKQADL

For `Cc1cc2nn(CC3CCN(C(=O)c4ccc(Oc5ccc(F)cc5)cc4)CC3)cc2cc1C(=O)NCCN1CCOCC1` [Example 78, 2-({1-[4-(4-fluoro-phenoxy)benzoyl]-piperidin-4-yl}-methyl)-6-methyl-N-(2-morpholinoethyl)-2H-indazol-5-carboxamide], the IC50 in test [1] worked out at 0.0317 µM. For the same compound, the “Selectivity hEP2/hEP4” value in test [2] is on record as “xxx (xxx > 100)”. Further, the “Selectivity hEP2/hDP” value in test [3] is listed as “xxx (xxx > 100)”.
Regarding `COCCNC(=O)c1ccc2nn(CC3CCN(C(=O)c4ncc(-c5ccccc5)o4)CC3)cc2c1C` [Example 354, N-(2-methoxyethyl)-4-methyl-2-({1-[(5-phenyloxazol-2-yl)carbonyl]piperidin-4-yl}methyl)-2H-indazol-5-carboxamide], in test [1], the IC50 worked out at 0.00587 µM. In addition, the “Selectivity hEP2/hEP4” value in test [2] is “xxx (xxx > 100)”. Further, in test [3], the “Selectivity hEP2/hDP” value was “xxx (xxx > 100)”.
With `COCCNC(=O)c1ccc2nn(CC3CCN(C(=O)c4ccc(-c5cc(F)cc(F)c5)c(C)c4)CC3)cc2c1C` [Example 391, 2-({1-[(3′,5′-difluoro-2-methylbiphenyl-4-yl)carbonyl]piperidin-4-yl}methyl)-N-(2-methoxyethyl)-4-methyl-2H-indazol-5-carboxamide], the IC50 in test [1] was found to be 0.00607 µM. In addition, the “Selectivity hEP2/hEP4” value in test [2] is given as “xxx (xxx > 100)”. In addition, the “Selectivity hEP2/hDP” value in test [3] is reported as “xxx (xxx > 100)”.
Regarding `Cc1c(C(=O)NCC(F)(F)F)ccc2nn(CC3CN(C(=O)c4ccc(S(F)(F)(F)(F)F)cc4)C3)cc12` [Example 132, 4-methyl-2-({1-[4-(pentafluoro-λ^6-sulphanyl)benzoyl]azetidin-3-yl}methyl)-N-(2,2,2-trifluoroethyl)-2H-indazol-5-carboxamide], the IC50 in test [1] came to 0.109 µM. Moreover, the “Selectivity hEP2/hEP4” value in test [2] is reported as “xxx (xxx > 100)”. Besides, the “Selectivity hEP2/hDP” value in test [3] is “xxx (xxx > 100)”.
With `COCCNC(=O)c1ccc2nn(CC3CCN(C(=O)c4ccc(C(C)(C)C)cc4)CC3)cc2c1C` [Example 333, 2-{[1-(4-tert-butylbenzoyl)piperidin-4-yl]methyl}-N-(2-methoxyethyl)-4-methyl-2H-indazol-5-carboxamide], the half-inhibitory concentration (IC50) in test [1] came to 0.00642 µM. In addition, in test [2], the “Selectivity hEP2/hEP4” value was “xxx (xxx > 100)”. Besides, the “Selectivity hEP2/hDP” value in test [3] is on record as “xxx (xxx > 100)”.
In the case of `Cc1c(C(=O)NCCS(C)(=O)=O)ccc2nn(CC3CCN(C(=O)c4ccc(-c5ccc(F)cc5)cc4)CC3)cc12` [Example 408, 2-({1-[(4′-fluorobiphenyl-4-yl)carbonyl]piperidin-4-yl}methyl)-N-(2-mesylethyl)-4-methyl-2H-indazol-5-carboxamide], in test [1], the half-inhibitory concentration (IC50) came to 0.0235 µM. For the same compound, the “Selectivity hEP2/hEP4” value in test [2] was “xxx (xxx > 100)”. In addition, the “Selectivity hEP2/hDP” value in test [3] is reported as “xxx (xxx > 100)”.
As for `Cc1c(C(=O)NCC(F)(F)F)ccc2nn(CC3CCN(C(=O)c4ccc(-c5ccc(C(F)(F)F)cc5)cc4)CC3)cc12` [Example 315, 4-methyl-N-(2,2,2-trifluoroethyl)-2-[(1-{[4′-(trifluoromethyl)biphenyl-4-yl]-carbonyl}piperidin-4-yl)methyl]-2H-indazol-5-carboxamide], the half-maximal inhibitory concentration (IC50) in test [1] turned out to be 0.043 µM. Also, in test [2], the “Selectivity hEP2/hEP4” value was “xxx (xxx > 100)”. In addition, in test [3], the “Selectivity hEP2/hDP” value is “xxx (xxx > 100)”.
With `Cc1c(C(=O)NCCO)ccc2nn(CC3CCN(C(=O)c4ccc(-c5ccc(F)cc5)cc4)CC3)cc12` [Example 410, 2-({1-[(4′-fluorobiphenyl-4-yl)carbonyl]piperidin-4-yl}methyl)-N-(2-hydroxyethyl)-4-methyl-2H-indazol-5-carboxamide], the IC50 in test [1] amounted to 0.0904 µM. Also, the “Selectivity hEP2/hEP4” value in test [2] is given as “xxx (xxx > 100)”. In test [3], the “Selectivity hEP2/hDP” value was “xxx (xxx > 100)”.
As for `Cc1c(C(=O)NCC(F)(F)F)ccc2nn(CC3CCN(C(=O)c4cn(C)c5ccccc45)CC3)cc12` [Example 289, 4-methyl-2-({1-[(1-methyl-1H-indol-3-yl)carbonyl]piperidin-4-yl}methyl)-N-(2,2,2-trifluoroethyl)-2H-indazol-5-carboxamide], the IC50 in test [1] is 0.0516 µM. For the same compound, in test [2], the “Selectivity hEP2/hEP4” value is “xxx (xxx > 100)”. Moreover, in test [3], the “Selectivity hEP2/hDP” value was “xxx (xxx > 100)”.
For the compound `Cc1c(C(=O)NCC(F)(F)F)ccc2nn(CC3CCN(C(=O)c4ccc(Cl)cc4)CC3)cc12` [Example 72, 2-{[1-(4-chlorobenzoyl)piperidin-4-yl]methyl}-4-methyl-N-(2,2,2-trifluoroethyl)-2H-indazol-5-carboxamide], the IC50 in test [1] worked out at 0.12 µM. For the same compound, the “Selectivity hEP2/hEP4” value in test [2] is “xxx (xxx > 100)”. The “Selectivity hEP2/hDP” value in test [3] is “xxx (xxx > 100)”.
As for `COCCNC(=O)c1ccc2nn(CC3CCN(C(=O)c4ccc(Oc5ccc(C(F)(F)F)nc5)cc4)CC3)cc2c1C` [Example 349, N-(2-methoxyethyl)-4-methyl-2-{[1-(4-{[6-(trifluoromethyl)pyridin-3-yl]oxy}-benzoyl)piperidin-4-yl]methyl}-2H-indazol-5-carboxamide], in test [1], the IC50 worked out at 0.00482 µM. Further, the “Selectivity hEP2/hEP4” value in test [2] is “xxx (xxx > 100)”. For the same compound, in test [3], the “Selectivity hEP2/hDP” value is reported as “xxx (xxx > 100)”.
Take `Cc1c(C(=O)NCCN2CCOCC2)ccc2nn(CC3CCN(C(=O)c4ccc(OC(F)(F)F)cc4)CC3)cc12` [Example 59, 4-methyl-N-(2-morpholinoethyl)-2-({1-[4-(trifluoromethoxy)benzoyl]piperidin-4-yl}methyl)-2H-indazol-5-carboxamide]: the IC50 in test [1] stood at 0.758 µM. Also, in test [2], the “Selectivity hEP2/hEP4” value is on record as “xx (xx: 10-100)”. For the same compound, the “Selectivity hEP2/hDP” value in test [3] is given as “xx (xx: 10-100)”.
Take `O=C(NCCOCC1CC1)c1ccc2nn(CC3CCN(C(=O)c4ccc(Cl)cc4)CC3)cc2c1OCC(F)(F)F` [Example 235, 2-{[1-(4-chlorobenzoyl)piperidin-4-yl]methyl}-N-[2-(cyclopropylmethoxy)-ethyl]-4-(2,2,2-trifluoroethoxy)-2H-indazol-5-carboxamide]: the 50% inhibitory concentration (IC50) in test [1] was 0.0167 µM. Further, in test [2], the “Selectivity hEP2/hEP4” value was “xxx (xxx > 100)”. In addition, the “Selectivity hEP2/hDP” value in test [3] is “xxx (xxx > 100)”.
Take `COCCNC(=O)c1cc2cn(CC3CN(C(=O)c4ccc(SC(F)(F)F)cc4)C3)nc2cc1C` [Example 180, N-(2-methoxyethyl)-6-methyl-2-[(1-{4-[(trifluoromethyl)sulphanyl]benzoyl}azetidin-3-yl)methyl]-2H-indazol-5-carboxamide]: in test [1], the IC50 worked out at 0.0173 µM. Further, the “Selectivity hEP2/hEP4” value in test [2] is recorded as “xxx (xxx > 100)”. In addition, the “Selectivity hEP2/hDP” value in test [3] was “xxx (xxx > 100)”.
As to `COCCNC(=O)c1ccc2nn(CC3CCN(C(=O)c4ccc(OC(F)(F)F)cc4)CC3)cc2c1OC` [Example 266, 4-methoxy-N-(2-methoxyethyl)-2-({1-[4-(trifluoromethoxy)benzoyl]piperidin-4-yl}methyl)-2H-indazol-5-carboxamide], in test [1], the IC50 amounted to 0.0189 µM. For the same compound, the “Selectivity hEP2/hEP4” value in test [2] was “xxx (xxx > 100)”. Also, the “Selectivity hEP2/hDP” value in test [3] is given as “xxx (xxx > 100)”.
Take `Cc1c(C(=O)NCC(C)OCC2CC2)ccc2nn(CC3CCN(C(=O)c4ccc(C5CC5)cc4)CC3)cc12` (racemic) [Example 106, (+/−)-2-{[1-(4-cyclopropylbenzoyl)piperidin-4-yl]-methyl}-N-[2-(cyclopropyl-methoxy)propyl]-4-methyl-2H-indazol-5-carboxamide]: the concentration for half-maximal inhibition (IC50) in test [1] was 0.15 µM. For the same compound, the “Selectivity hEP2/hEP4” value in test [2] is on record as “xxx (xxx > 100)”. Further, the “Selectivity hEP2/hDP” value in test [3] is given as “xxx (xxx > 100)”.

The IC50 is the concentration at which inhibition is half-maximal.
